# In publication PMC6100288 (Molecules : A Journal of Synthetic Chemistry and Natural …, 2018):
# Molecular target: T1, recombinant human PTP1B (Homo sapiens, UniProt P18031)
# T1 construct: purchased Enzo Life Sciences Inc. BML-SE332-0050
# T1 sequence (P18031 1-322 limits assumed): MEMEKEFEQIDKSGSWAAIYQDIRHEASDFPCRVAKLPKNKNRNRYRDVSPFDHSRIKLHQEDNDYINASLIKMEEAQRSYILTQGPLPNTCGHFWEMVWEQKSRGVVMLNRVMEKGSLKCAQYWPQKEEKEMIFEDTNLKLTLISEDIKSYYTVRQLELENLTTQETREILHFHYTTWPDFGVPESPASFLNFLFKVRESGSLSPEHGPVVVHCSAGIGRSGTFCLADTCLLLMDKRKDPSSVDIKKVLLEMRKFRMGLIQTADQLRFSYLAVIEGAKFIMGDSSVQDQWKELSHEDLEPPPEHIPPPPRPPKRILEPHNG
# Assay: High-resolution PTP1B inhibition profiling (biochromatogram of HPLC microfractions)
# Assay type: biochemical
# Settings: HPLC microfractions of crude ethyl acetate extract, Figure 1; result in words
# Experimental: PTP1B inhibition assaying of the defatted extract, fraction F1 (from preparative HPLC: see Section 3.5) and microfractions (obtained as described below in Section 3.4) were performed according to the microplate-based method previously described. In brief, all solutions were prepared in a buffer of 50 mM Tris and 50 mM Bis-Tris containing 100 mM NaCL and adjusted to pH 7. To each well containing microfractions or dilution series of pure compounds were added 18 µL of DMSO and 52 µL of 3.4 mM EDTA in Bis-Tris buffer (to give final well concentrations of 10% DMSO and 1 mM EDTA) as well as 60 µL of a Bis-Tris buffer solution containing 1.5 mM pNPP and 6 mM DTT in phosphate buffer (to give final well concentrations of 0.5 mM pNPP and 2 mM DTT). The microplate was incubated for 10 min at 25 °C, and the reaction was started by addition of 0.001 μg/μL PTP1B stock solution (50 μL) in phosphate buffer (to give a final concentration of 0.05 µg PTP1B per well). The reaction was monitored at 405 nm every 30 s for 10 min to yield the enzyme activity (expressed as cleavage rate AU/s) by using a Thermo Scientific Multiskan FC microplate photometer (Thermo Scientific, Waltham, MA, USA). For each microplate, blank samples (negative controls) containing buffer, enzyme, EDTA, DTT, and pNPP were measured in triplicate, and for the dilution series, RK682 was included as a reference inhibitory compound (i.e., positive control). The percentage inhibition of PTP1B was calculated according to the following equation: % inhibition=(1−SLOPEsample/SLOPEblank)×100
# (§1) The high-resolution PTP1B biochromatograms (high-resolution PTP1B inhibition profiles) were constructed by plotting the inhibition values against the chromatographic retention time. Dose-response curves and IC50 values for dilution series of the crude extract and pure compounds were obtained using GraFit software, version 5.0.11 (Erithacus Software Limited, West Sussex, UK). For PTP1B IC50 values, the crude extract and isolated compounds were assessed by using the standard assay conditions described above. Nine dilutions were assessed in triplicates and percentage inhibition calculated as mean ± standard deviation in Microsoft Excel according to the above equation. The results were imported and used for assessing dose-response curves and IC50 values in GraFit software, version 5.0.11 (Erithacus Software Limited). Data were fitted to the equation f(x)=min+max−min/1+(x/IC50)^slope where min is the background, max–min is the y-range, x is the concentration, and slope is the Hill slope. Results are reported as IC50 values ± standard error.
# Microfractionation of the extract of M. albicans for high-resolution PTP1B inhibition profiling was conducted using an Agilent 1200 system (Santa Clara, CA, USA—HPLC system 1) comprising a G1311A quaternary pump, a G1322A degasser, a G1316A thermostatted column compartment, a G1315C photodiode array detector, a G1367C high-performance autosampler, and a G1364C fraction collector, controlled by Agilent ChemStation version B.03.02 software. Separations were performed by using a reversed-phase Phenomenex Luna C18(2) column (150 mm × 4.6 mm i.d., 3 μm particle size, 100 Å pore size) (Phenomenex, Torrance, CA, USA). A binary elution system of water: acetonitrile (95:5, solvent A) and acetonitrile: water (95:5, solvent B), both acidified with 0.1% formic acid, was used with a flow rate of 0.8 mL/min. […]
row,PTP1B inhibitory activity in high-resolution inhibition profile of crude extract,Compound
1,PTP1B inhibitors,"O=C(/C=C/c1ccc(O)c(O)c1)O[C@@H]1O[C@H](COC(=O)c2cc(O)c(O)c(O)c2)[C@@H](OC(=O)c2cc(O)c(O)c(O)c2)[C@H](O)[C@H]1O [Compound 2, 1-O-(E)-caffeoyl-4,6-di-O-galloyl-β-D-glucopyranose]"
2,PTP1B inhibitors,"C[C@@H]1O[C@@H](Oc2c(-c3ccc(O)c(O)c3)oc3cc(O)cc(O)c3c2=O)[C@H](OC(=O)c2cc(O)c(O)c(O)c2)[C@H](O)[C@H]1O [Compound 5, quercetin 3-O-(2″-galloyl)-α-L-rhamnopyranoside]"
3,PTP1B inhibitors,"O=c1c(O[C@@H]2OC[C@H](O)[C@H](O)[C@H]2O)c(-c2ccc(O)cc2)oc2cc(O)cc(O)c12 [Compound 8, kaempferol 3-O-α-L-arabinopyranoside]"
4,PTP1B inhibitors,"C[C@@H]1O[C@@H](Oc2c(-c3cc(O)c(O)c(O)c3)oc3cc(O)cc(O)c3c2=O)[C@H](O)[C@H](O)[C@H]1O [Compound 3, myricetin 3-O-α-L-rhamnopyranoside]"
5,PTP1B inhibitors,"COc1c(O)cc(-c2oc3cc(O)cc(O)c3c(=O)c2O[C@@H]2O[C@@H](C)[C@H](O)[C@@H](O)[C@H]2O)cc1O [Compound 6, mearnsetin 3-O-α-L-rhamnopyranoside]"

# Molecular target: T1, recombinant human PTP1B
# Assay: Microplate-based PTP1B inhibition assay (pNPP substrate)
# Assay type: biochemical
# Settings: n = 3; IC50 ± standard error; pH 7, 25 °C, 0.5 mM pNPP
# Excerpt: p-Nitrophenyl phosphate (pNPP), dimethyl sulfoxide (DMSO), sodium phosphate monobasic dihydrate, sodium phosphate dibasic, sodium hydroxide, sodium azide, tris-(hydroxymethyl)-aminomethane (Tris), bis-(2-hydroxyethyl)-imino-tris-(hydroxymethylmethane) (Bis-Tris), N,N,N′,N′-ethylenediaminetetraacetate (EDTA), dithiothreitol (DTT), methanol-d4, and HPLC grade acetonitrile were purchased from Sigma-Aldrich (St. Louis, MO, USA), recombinant human PTP1B (BML-SE332-0050, EC 3.1.3.48) was purchased from Enzo Life Sciences Inc. (Farmingdale, NY, USA), and formic acid was purchased from Merck (Darmstadt, Germany). Water was purified by deionization and filtration through a 0.22 μm membrane (Millipore, Billerica, MA, USA).
# PTP1B inhibition assaying of the defatted extract, fraction F1 (from preparative HPLC: see Section 3.5) and microfractions (obtained as described below in Section 3.4) were performed according to the microplate-based method previously described. In brief, all solutions were prepared in a buffer of 50 mM Tris and 50 mM Bis-Tris containing 100 mM NaCL and adjusted to pH 7. […] The microplate was incubated for 10 min at 25 °C, and the reaction was started by addition of 0.001 μg/μL PTP1B stock solution (50 μL) in phosphate buffer (to give a final concentration of 0.05 µg PTP1B per well). […] For each microplate, blank samples (negative controls) containing buffer, enzyme, EDTA, DTT, and pNPP were measured in triplicate, and for the dilution series, RK682 was included as a reference inhibitory compound (i.e., positive control). The percentage inhibition of PTP1B was calculated according to the following equation: % inhibition=(1−SLOPEsample/SLOPEblank)×100
# as §1, with “slope.” for “slope. Results are reported as IC50 values ± standard error.”
row,IC50 [nM],Compound
1,1080 ± 300,"CC1(C)CC[C@]2(C(=O)O)CC[C@]3(C)C(=CC[C@@H]4[C@@]5(C)C[C@@H](O)[C@H](OC(=O)/C=C/c6ccc(O)cc6)C(C)(C)[C@@H]5CC[C@]43C)[C@@H]2C1 [Compound 17, 3-O-trans-p-coumaroyl-maslinic acid]"
2,2870 ± 400,"CC1(C)CC[C@]2(C(=O)O)CC[C@]3(C)C(=CC[C@@H]4[C@@]5(C)CC[C@@H](O)C(C)(C)[C@@H]5[C@H](O)C[C@]43C)[C@@H]2C1 [Compound 14, 3-epi-sumaresinolic acid]"
3,460 ± 70,"CC1(C)CC[C@]2(C(=O)O)CC[C@]3(C)C(=CC[C@@H]4[C@@]5(C)C[C@@H](O)[C@H](OC(=O)/C=C\c6ccc(O)cc6)C(C)(C)[C@@H]5CC[C@]43C)[C@@H]2C1 [Compound 16, 3-O-cis-p-coumaroyl-maslinic acid]"
4,1600 ± 500,"CC1C(C(=O)O)CCC2(C)CCC3(C)C(=CCC4C5(C)CC(O)C(OC(=O)C=Cc6ccc(O)cc6)C(C)(C)C5CCC43C)C12 (stereo not drawn) [Compound 18, 3-O-trans-p-coumaroyl-2α-hydroxydulcioic acid]"
5,1840 ± 300,"CC1(C)CC[C@]2(C(=O)O)CC[C@]3(C)C(=CC[C@@H]4[C@@]5(C)CC[C@H](O)C(C)(C)[C@@H]5[C@H](O)C[C@]43C)[C@@H]2C1 [Compound 15, Sumaresinolic acid]"

row,Compound,IC50 [nM]
1,"CC1(C)CC[C@]2(C(=O)O)CC[C@]3(C)C(=CC[C@@H]4[C@@]5(C)C[C@@H](O)[C@H](O)C(C)(C)[C@@H]5CC[C@]43C)[C@@H]2C1 [Compound 13, Maslinic acid]",3210 ± 800

# System: PTP1B
# Assay: not given
# Design: method as in PMID 23704520
# Settings: read-out: previously reported IC50-value (PTP1B); cited from earlier work
row,Compound,IC50 [nM]
1,"CC1(C)CC[C@]2(C(=O)O)CC[C@]3(C)C(=CC[C@@H]4[C@@]5(C)C[C@@H](O)[C@H](O)C(C)(C)[C@@H]5CC[C@]43C)[C@@H]2C1 [Compound 13, Maslinic acid]",5930
